Test results as given in patent publication US9751861B2, “N1-(3,3,3-trifluoro-2-hydroxo-2-methylpropionyl)-piperidine derivatives as inhibitors of pyruvate dehydrogenase kinase” (MERCK PATENT GMBH, priority 2013, dated 2017).

What was measured:
PDHK2 = biological target: T1, PDHK2 (Homo sapiens, UniProt Q15119); experiment: Biochemical activity testing of PDHK2: PDC inactivation assay; settings: human rec PDHK2, PDC from porcine heart, ATP 5 μM; read-out: IC50 PDHK2 (enzyme assay)
T1 construct: purchased Carna Bioscience
Source text: Biochemical Activity Testing of PDHK2: PDC Inactivation Assay
The biochemical activity assay for PDHK2 is based on the inactivation of PDC through phosphorylation by PDHK2. The assay is run in two steps: the enzymatic PDHK2 reaction in which isolated PDC is phosphorylated by PDHK2 with ATP as co-substrate and the PDC activity assay in which pyruvate and NAD are converted to acetyl-CoA and NADH. The PDC activity correlates to the increase in NADH and thereby is detectable directly via the increasing fluorescence signal (Exc 340 nm, Em 450 nm). Inhibition of PDHK2 results in a lower phosphorylation status and thereby a less decrease in activity of PDC and a stronger increase in NADH fluorescence signal.
The PDC inactivation assay is performed in Greiner 384-well microtiter plates and is used for high throughput screen. 4 μl of PDHK2 (human, rec, Carna Bioscience, 10 ng/μl-137 nM final concentration) and PDC (isolated from porcine heart, Sigma-Aldrich, 20 mU/ml final concentration) are incubated in the absence or presence of the test compound (10 dilution concentrations) for 30 min at room temperature in kinase buffer (15 mM potassium phosphate buffer, pH 7.0, 60 mM KCl, 1.5 mM DTT, 2.5 mM MgCl2, 0.0125% (w/v) BSA, 0.125% Pluronic F-68). The kinase reaction is started by the addition of 4 μl ATP substrate solution (fc 5 μM in kinase buffer). After 30 min incubation at 37° C. 40 μl of PDC reaction solution (100 mM Tris/HCl, pH 7.8, 0.5 mM EDTA, 1 mM MgCl2, 50 mM NaF, 0.25 mM Coenzyme A, 5 mM pyruvate, 1 mM NAD, 5 mM DTT, […] thiamine pyrophosphate) is added. The first fluorescence measurement is performed on a Perkin Elmer Envision (Exc 340 nm, Em 450 nm). The reaction is incubated for 45 min at room temperature. Afterwards a second fluorescence measurement is performed and the PDC activity is calculated by the difference between both measurements. As full value for the PDHK2 assay the inhibitor-free PDHK2 reaction is used. The pharmacological zero value used is DCA (Sigma-Aldrich) in a final concentration of 3 mM. The inhibitory values (IC50) were determined using either the program Symyx Assay Explorer® or Condosseo® from GeneData.

human PDHK2 (12-407) = biological target: T2, human PDHK2 (12-407) (Homo sapiens, UniProt Q15119); experiment: Isothermal titration calorimetry (ITC) binding; settings: 30° C., pH 7.5
T2 construct: The human PDHK2 (12-407) was produced in E. coli; His-tag (cleaved yes); made in house; host or cells: E. coli
Description: Isothermal Titration Calorimetry
ITC measurements were performed with a VP-ITC micro calorimeter (Microcal, LLC/GE Healthcare Bio-Sciences AB, Uppsala, Sweden). In general titrations were performed by titrating the protein (50 μM) to the test compound (5 μM) in 12 μl injections. All binding experiments were carried out at 30° C. In general the test compounds were diluted form DMSO stock solutions into the measurement buffer with a maximum final concentration of 1% DMSO. The measurement buffer was 20 mM HEPES, 135 mM KCl, 1 mM TCEP, 2 mM MgCl2, 15 mM NaH2PO4, pH 7.5. The human PDHK2 (12-407) was produced in E. coli as his-tagged protein and purified by affinity chromatography. The tag was removed by side specific proteolysis. Before titration the protein buffer was changed to the measurement buffer containing the same DMSO concentration as the test compound dilution. ITC data analysis was performed using Origin 7 calorimetry software from the same supplier. For most measurements a binding model of one binding site was assumed. According to the applied mathematical model it is possible to calculate the binding constant (KA), the observed binding enthalpy (ΔH^obs) as well as the stoichiometry (N) of the formed complex. Preceding analysis the raw data was corrected for the heats of dilution by extrapolating from the saturation value from the end of titration. In order to allow for direct comparison between the respective experimental series and protein preparations the protein concentration was corrected by referencing titrations to a well behaved standard inhibitor. The apparent stoichiometry values defined the fraction of binding competent protein and compensated for relative errors in protein concentration measurements. This corrected protein concentration was used to set up ITC experiment series with test compounds. Any deviations from ideal 1:1 stoichiometry observed here were attributed to errors in compound concentration. This nominal compound concentration was corrected as well to achieve 1:1 stoichiometry in the fit.

SMILES | IC50 (PDHK2) | Kd (human PDHK2 (12-407))
C[C@@](O)(C(=O)N1CCC(c2nncn2-c2ccc(F)cc2)CC1)C(F)(F)F [Compound A71, (R)-3,3,3-Trifluoro-1-{4-[4-(4-fluoro-phenyl)-4H-[1,2,4]triazol-3-yl]-piperidin-1-yl}-2-hydroxy-2-methyl-propan-1-one] | 0.3 to 3 µM | 0.3 to 3 µM
COc1ccc(-n2ccc(C3CCN(C(=O)[C@@](C)(O)C(F)(F)F)CC3)n2)nn1 [Compound A105, (R)-3,3,3-Trifluoro-2-hydroxy-1-{4-[1-(6-methoxy-pyridazin-3-yl)-1H-pyrazol-3-yl]-piperidin-1-yl}-2-methyl-propan-1-one] | 0.3 to 3 µM | 0.3 to 3 µM
CC(C)Cn1ccc(C2CCN(C(=O)[C@@](C)(O)C(F)(F)F)CC2)n1 [Compound A114, (R)-3,3,3-Trifluoro-2-hydroxy-1-[4-(1-isobutyl-1H-pyrazol-3-yl)-piperidin-1-yl]-2-methyl-propan-1-one] | 0.3 to 3 µM | 
C[C@@](O)(C(=O)N1CCC(c2nccn2-c2ccc(Cl)cc2)CC1)C(F)(F)F [Compound A69, (R)-1-{4-[1-(4-Chloro-phenyl)-1H-imidazol-2-yl]-piperidin-1-yl}-3,3,3-trifluoro-2-hydroxy-2-methyl-propan-1-one] | 0.3 to 3 µM | 
C[C@H]1CN(C(=O)[C@@](C)(O)C(F)(F)F)CC[C@H]1c1ccnn1-c1ccc(F)cc1 [Compound A108, (R)-3,3,3-Trifluoro-1-{(3R,4R)-4-[2-(4-fluoro-phenyl)-2H-pyrazol-3-yl]-3-methyl-piperidin-1-yl}-2-hydroxy-2-methyl-propan-1-one] | 0.3 to 3 µM | 0.3 to 3 µM
C[C@@](O)(C(=O)N1CCC(c2nccn2-c2ccc(F)cc2)CC1)C(F)(F)F [Compound A67, (R)-3,3,3-Trifluoro-1-{4-[1-(4-fluoro-phenyl)-1H-imidazol-2-yl]-piperidin-1-yl}-2-hydroxy-2-methyl-propan-1-one] | 0.3 to 3 µM | 0.3 to 3 µM
C[C@@](O)(C(=O)N1CCC(c2ccn(-c3ncc(F)cc3F)n2)CC1)C(F)(F)F [Compound A109, (R)-1-{4-[1-(3,5-Difluoro-pyridin-2-yl)-1H-pyrazol-3-yl]-piperidin-1-yl}-3,3,3-trifluoro-2-hydroxy-2-methyl-propan-1-one] | 0.3 to 3 µM | 
CC(C)Cn1nccc1C1CCN(C(=O)[C@@](C)(O)C(F)(F)F)CC1 [Compound A76, (R)-3,3,3-Trifluoro-2-hydroxy-1-[4-(2-isobutyl-1H-pyrazol-3-yl)-1-piperidyl]-2-methyl-propan-1-one] | 3 to 50 µM | 
CN1CCC(n2nccc2C2CCN(C(=O)[C@@](C)(O)C(F)(F)F)CC2)CC1 [Compound A75, (R)-3,3,3-Trifluoro-2-hydroxy-2-methyl-1-{4-[2-(1-methyl-piperidin-4-yl)-2H-pyrazol-3-yl]-piperidin-1-yl}-propan-1-one] | 3 to 50 µM | 
C[C@@](O)(C(=O)N1CCC(c2nncn2-c2ccc(Cl)cc2)CC1)C(F)(F)F [Compound A73, (R)-1-{4-[4-(4-Chloro-phenyl)-4H-[1,2,4]triazol-3-yl]-piperidin-1-yl}-3,3,3-trifluoro-2-hydroxy-2-methyl-propan-1-one] | 0.3 to 3 µM | 
Cc1cc(C2CCN(C(=O)[C@@](C)(O)C(F)(F)F)CC2)nn1-c1ccccc1 [Compound A47, (R)-1-[4-(5-Methyl-1-phenyl-1H-pyrazol-3-yl)-piperidin-1-yl]-3,3,3-trifluoro-2-hydroxy-2-methyl-propan-1-one] | 3 to 50 µM | 
C[C@@](O)(C(=O)N1CCC(c2ccnn2C2CCCC2)CC1)C(F)(F)F [Compound A51, (R)-1-[4-(2-Cyclopentyl-2H-pyrazol-3-yl)-piperidin-1-yl]-3,3,3-trifluoro-2-hydroxy-2-methyl-propan-1-one] | 0.3 to 3 µM | 
C[C@H]1CN(C(=O)[C@@](C)(O)C(F)(F)F)CC[C@H]1c1ccn(-c2ccc(F)cc2)n1 [Compound A45, (R)-3,3,3-Trifluoro-1-{(3R,4R)-4-[1-(4-fluoro-phenyl)-1H-pyrazol-3-yl]-3-methyl-piperidin-1-yl}-2-hydroxy-2-methyl-propan-1-one] | 3 to 50 µM | 
COc1cc(F)ccc1-n1nccc1C1CCN(C(=O)[C@@](C)(O)C(F)(F)F)CC1 [Compound A90, (R)-3,3,3-Trifluoro-1-{4-[2-(4-fluoro-2-methoxy-phenyl)-2H-pyrazol-3-yl]-piperidin-1-yl}-2-hydroxy-2-methyl-propan-1-one] | 0.3 to 3 µM | 

Continued, values first:

IC50 (PDHK2) | Kd (human PDHK2 (12-407)) | SMILES
0.3 to 3 µM |  | C[C@@](O)(C(=O)N1CCC(c2ccnn2-c2ccccc2C(F)(F)F)CC1)C(F)(F)F [Compound A89, (R)-3,3,3-Trifluoro-2-hydroxy-2-methyl-1-[4-[2-[2-(trifluoromethyl)phenyl]-2H-pyrazol-3-yl]-1-piperidyl]propan-1-one]
3 to 50 µM |  | Cn1ccc(C2CCN(C(=O)[C@@](C)(O)C(F)(F)F)CC2)n1 [Compound A99, (R)-3,3,3-Trifluoro-2-hydroxy-2-methyl-1-[4-(1-methyl-1H-pyrazol-3-yl)piperidin-1-yl]-propan-1-one]
0.3 to 3 µM |  | Cc1cc(C2CCN(C(=O)[C@@](C)(O)C(F)(F)F)CC2)nn1-c1ccc(F)cc1 [Compound A40, (R)-1-{4-[1-(4-Fluoro-phenyl)-5-methyl-1H-pyrazol-3-yl]-piperidin-1-yl}-3,3,3-trifluoro-2-hydroxy-2-methyl-propan-1-one]
3 to 50 µM |  | C[C@@](O)(C(=O)N1CCC(c2ccn(-c3ncc(Cl)cn3)n2)CC1)C(F)(F)F [Compound A103, (R)-1-{4-[1-(5-Chloro-pyrimidin-2-yl)-1H-pyrazol-3-yl]-piperidin-1-yl}-3,3,3-trifluoro-2-hydroxy-2-methyl-propan-1-one]
0.3 to 3 µM | 0.3 to 3 µM | C[C@@](O)(C(=O)N1CCC(n2nccc2-c2ccccc2)CC1)C(F)(F)F [Compound A66, (R)-3,3,3-Trifluoro-2-hydroxy-2-methyl-1-[4-(5-phenyl-pyrazol-1-yl)-piperidin-1-yl]-propan-1-one]
0.3 to 3 µM |  | C[C@@](O)(C(=O)N1CCC(c2ccnn2-c2ccc(C(F)(F)F)cn2)CC1)C(F)(F)F [Compound A84, (R)-3,3,3-Trifluoro-2-hydroxy-2-methyl-1-{4-[2-(5-trifluoromethyl-pyridin-2-yl)-2H-pyrazol-3-yl]-piperidin-1-yl}-propan-1-one]
0.3 to 3 µM |  | C[C@@](O)(C(=O)N1CCC(c2ccnn2-c2ccc(C#N)nc2)CC1)C(F)(F)F [Compound A81, 5-{5-[1-((R)-3,3,3-Trifluoro-2-hydroxy-2-methyl-propionyl)-piperidin-4-yl]-pyrazol-1-yl}-pyridine-2-carbonitrile]
0.3 to 3 µM |  | Cc1ccc(-n2nncc2C2CCN(C(=O)[C@@](C)(O)C(F)(F)F)CC2)cc1 [Compound A59, (R)-3,3,3-Trifluoro-2-hydroxy-2-methyl-1-[4-(3-p-tolyl-3 H-[1,2,3]triazol-4-yl)piperidin-1-yl]-propan-1-one]
3 to 50 µM |  | C[C@@](O)(C(=O)N1CCC(c2ccn[nH]2)CC1)C(F)(F)F [Compound A104, (R)-3,3,3-Trifluoro-2-hydroxy-2-methyl-1-[4-(2H-pyrazol-3-yl)-piperidin-1-yl]-propan-1-one]
